Test results: patent US4084006A, “Method of using dialkylphenols an antiviral agents” (priority 1977, dated 1978)

Experiments:
Measles = assay: Inhibition of cytopathic activity (CPE) of measles virus in HEL tissue culture; format: cell-based; settings: for CPE with 100 TCID50 doses of Measles virus: HEL cells
Experimental: The anti-viral activity of 2,4-dimethylphenol was studied in the following manner. Tissue cultures derived from human embryonic lung (HEL) were grown and maintained as monolayers in 32 ounce prescription bottles using growth medium consisting of 85% synthetic mixture No. 199 plus 15% unfiltered fetal bovine serum (FBS) adjusted to pH 7.4. Tube cultures of HEL cells were prepared in similar fashion and used in assays for anti-viral activity. During chemotherapy tests, the maintenance medium consisted of synthetic mixture No. 199 with 7.5% FBS. The virus spectrum in tissue culture consisted of two DNA viruses, a San Carlos virus isolated by Davis [see Science 133, 2059, 1961] and later identified as an adenovirus, and the HF strain of herpes simplex virus. In addition, a RNA virus represented by measles was included in the examples.
In performing the initial assays, the tissue cultures were treated prophylactically and the virus was treated in vitro with decreasing 2,4-dimethylphenol concentrations ranging from […] (2 × 10^-6) to 2 attograms (ag) (2 × 10^-18) per ml. The procedure consisted of pretreating tube cultures of HEL cells for two to three days with growth medium containing varying concentrations of 2,4-dimethylphenol. After the prophylactic treatment, the test fluids were removed and replaced with fresh maintenance medium. At this time, 200 TCID50 doses of virus were mixed in vitro with the same decreasing concentrations of the distillate used to pretreat the cells, then the mixture was inoculated into replicate culture of HEL cells so that the final incolum consisted of 100 TCID50 doses of virus in tubes with 2,4-dimethylphenol at the same level used to prophylactically treat the cells.
The same number of infected control tubes were handled in the same way except that 2,4-dimethylphenol was omitted from all media. Culture tubes were rotated at 37° C. and examined daily for a period of 7 days for cytopathic activity (CPE). […] By the same token, the CPE of herpes virus was inhibited by both the 10^-12 and 10^-15 level, possibly indicating two active components. […]

San Carlos virus = assay: Dimethylphenols against San Carlos virus in tissue culture (human embryonic lung), CPE; format: cell-based, San Carlos virus (adenovirus); settings: for CPE with TCID50 doses of San Carlos virus: human embryonic lung, 100 TCID50
[1] = system: Mycoplasma pulmonis (ATCC 19612); assay: Rats infected intranasally with Mycoplasma pulmonis: lung pathology and breeding; format: in vivo, Mycoplasma pulmonis (host: rat); settings: 1 PPB in drinking water 58 days; three M. pulmonis infected female rats
From the text: (§1) Attempts were made to test the effect of infecting rats with Mycoplasma pulmonis (ATCC 19612) so that they could transmit the disease to their cage mates and, also allowed them to breed. This was also done to test if the mothers would pass the infection on to their litters. These rats were purchased from a laboratory in Indianapolis, Indiana and they were divided into 6 groups with male animals in each group. In the 5 experimental groups, a total of 15 female rats out of 30, and in the control group 4 female rats out of 8 were infected intranasally with Mycoplasma pulmonis (ATCC 19612). There were two male rats per experimental group and 3 for the controls totaling 13 male rats, and none of these were infected with M. pulmonis.
(§2) The experimental groups (8 rats each) and control group were treated as follows:
All rats were fed ad libitum rat chow, and their cages were cleaned 5-6 times weekly. For the 5 experimental groups, the 2,4 DMP was dissolved in distilled water used for their drinking fluid while the control only received distilled water. There were times when the rats spilled excessive amounts of their drinking water and this caused a certain amount of the phenol to be evaporated from these cages, particularly those groups receiving the higher concentrations of the phenol. […]

[2] = system: pneumonia virus of mice (PVM); assay: Serum PVM titers in rats; format: in vivo, pneumonia virus of mice (host: rat); settings: for Mycoplasma infected rats that failed to show titers for PVM: sera of 19 infected rats
From the text: as §1, §2
All rats were fed ad libitum rat chow, and their cages were cleaned 5-6 times weekly. For the 5 experimental groups, the 2,4 DMP was dissolved in distilled water used for their drinking fluid while the control only received distilled water. There were times when the rats spilled excessive amounts of their drinking water and this caused a certain amount of the phenol to be evaporated from these cages, particularly those groups receiving the higher concentrations of the phenol. This way, it was possible for the controls to inhale a small but indefinite amount of the phenol which is volatile. All animals were kept in the same laboratory room.
All the male animals (13) were sacrificed after 14 days, and after impregnating the females. Their blood was collected by heart puncture, and the animals lungs were saved in 10% formalin for pathology. All the female rats (18) that were not infected, except one, intranasally with M. pulmonis were sacrificed 30 days post infection of their cage mates. All the young born to these rats (non-infected), during this time were also sacrificed. The blood and lungs from the adult females were saved for study.
The 19 female rats infected with M. pulmonis and one non-infected female were allowed to raise their litters so that the young could be weaned, and then they were sacrificed 58 days post infection, saving their blood and lungs for study.
When the offsprings from the M. pulmonis infected mothers were 40-50 days old a proportionate number selected at random were sacrificed, saving blood and lungs for study:
The serum of each rat sacrificed was tested for antibodies for Mycoplasma. […] One of these rats was in the group receiving one part per million of the phenol and other was a control. Therefore, it was concluded that the Mycoplasma pulmonis was not the cause of the lung infection in these rats, but there was still enough pathology evident in these lungs to suspect some unknown infection. Consequently, the serum of the control rat showing a low titer for Mycoplasma pulmonis was screened by a commercial laboratory for virus infections commonly associated with rats.
All blood serums saved from these experiments were tested for PVM titers. Sera from eight of the 13 males sacrificed at 14 days had detectable titers. All three of these controls had titers indicating PVM infection leaving 5 treated rats with titers for PVM. In the 18 non-infected female rats that were sacrificed after 30 days two rats were negative for PVM titers, one was in the 1 PPM and the other was in the 1 PPB treated groups.

Cc1ccc(O)c(C)c1 [2,4-dimethylphenol]
CPE with 100 TCID50 doses of Measles virus (Measles; 10^-6 grams 2X): 3+ (75% of cells infected with selected virus) | CPE with 100 TCID50 doses of Measles virus (Measles; 10^-7 grams 2X): 3+ (75% of cells infected with selected virus) | CPE with 100 TCID50 doses of Measles virus (Measles; 10^-8 grams 2X): 3+ (75% of cells infected with selected virus) | CPE with 100 TCID50 doses of Measles virus (Measles; 10^-9 grams 2X): 2+ (50% of cells infected with selected virus) | CPE with 100 TCID50 doses of Measles virus (Measles; 10^-10 grams 2X): 2+ (50% of cells infected with selected virus) | CPE with 100 TCID50 doses of Measles virus (Measles; 10^-11 grams 2X): 2+ (50% of cells infected with selected virus) | CPE with 100 TCID50 doses of Measles virus (Measles; 10^-12 grams 2X): 2+ (50% of cells infected with selected virus) | CPE with 100 TCID50 doses of Measles virus (Measles; 10^-13 grams 2X): 2+ (50% of cells infected with selected virus) | CPE with 100 TCID50 doses of Measles virus (Measles; 10^-14 grams 2X): 1+ (25% of cells infected with selected virus) | CPE with 100 TCID50 doses of Measles virus (Measles; 10^-15 grams 2X): 1+ (25% of cells infected with selected virus) | CPE with 100 TCID50 doses of Measles virus (Measles; 10^-16 grams 2X): ± (less than 10% infected) | CPE with 100 TCID50 doses of Measles virus (Measles; 10^-17 grams 2X): 1+ (25% of cells infected with selected virus) | CPE with 100 TCID50 doses of Measles virus (Measles; 10^-18 grams 2X): 0 (no cells infected) | Measles CPE (Measles; concentrations less than the 10^-14 level): appeared to be inhibited | CPE with TCID50 doses of San Carlos virus (San Carlos virus; 10^-6 grams 2X): 3+ (75% of cells infected with selected virus) | CPE with TCID50 doses of San Carlos virus (San Carlos virus; 10^-7 grams 2X): 2+ (50% of cells infected with selected virus) | CPE with TCID50 doses of San Carlos virus (San Carlos virus; 10^-8 grams 2X): ± (less than 10% infected) | CPE with TCID50 doses of San Carlos virus (San Carlos virus; 10^-9 grams 2X): ± (less than 10% infected) | CPE with TCID50 doses of San Carlos virus (San Carlos virus; 10^-10 grams 2X): ± (less than 10% infected) | CPE with TCID50 doses of San Carlos virus (San Carlos virus; 10^-11 grams 2X): 1+ (25% of cells infected with selected virus) | CPE with TCID50 doses of San Carlos virus (San Carlos virus; 10^-12 grams 2X): 1+ (25% of cells infected with selected virus) | CPE with TCID50 doses of San Carlos virus (San Carlos virus; 10^-13 grams 2X): 1+ (25% of cells infected with selected virus) | CPE with TCID50 doses of San Carlos virus (San Carlos virus; 10^-14 grams 2X): 2+ (50% of cells infected with selected virus) | CPE with TCID50 doses of San Carlos virus (San Carlos virus; 10^-15 grams 2X): 2+ (50% of cells infected with selected virus) | anti-viral activity against San Carlos virus (San Carlos virus; at various concentrations): exhibit anti-viral activity | lung infection compared with the other four groups and the controls [1]: for all practical purposes, clear of infection | non-infected female rats negative for PVM titers ([2]; 1 PPM, sacrificed after 30 days, all controls positive): one | offspring with detectable titers for PVM ([2]; 47 offsprings tested, treated groups and controls exposed to vapors): not one | effect on PVM ([2]; 51 rats purchased, drinking water): appeared to have had an effect on this virus so as to depress its passage to other animals | Mycoplasma infected rats that failed to show titers for PVM ([2]; 100 parts per billion): two | treated male rats with titers for PVM ([2]; males sacrificed at 14 days, all treated groups, all three controls positive): 5 | Mycoplasma infected rats that failed to show titers for PVM ([2]; one part per million): two
